# What was measured:
# [1] = test system: Mycobacterium tuberculosis; assay: Antimycobacterial activity against Mycobacterium tuberculosis H37Rv after 16 to 24 hrs by alamar blue assay; format: functional
# MRC5 [2] = assay: Cytotoxicity against human MRC5 cells at 2.1 ug/ml by MTT assay; format: cell-based
# MRC5 [3] = assay: Cytotoxicity against human MRC5 cells at 1 ug/ml by MTT assay; format: cell-based
# [4] = test system: Mycobacterium tuberculosis; assay: Antimycobacterial activity against Mycobacterium tuberculosis H37Ra after 16 to 24 hrs by alamar blue assay; format: functional
# [5] = test system: Mycobacterium tuberculosis; assay: Antimycobacterial activity against p-aminosalicylic acid-resistant Mycobacterium tuberculosis H37Rv ATCC 35821 after 16 to 24 hrs by alamar blue assay; format: functional
# MRC5 [6] = assay: Cytotoxicity against human MRC5 cells at 6 ug/ml by MTT assay; format: cell-based
# MRC5 [7] = assay: Cytotoxicity against human MRC5 cells by MTT assay; format: cell-based
# MRC5 [8] = assay: Cytotoxicity against human MRC5 cells at 2 ug/ml by MTT assay; format: cell-based
Structure (SMILES),MIC [1],Activity (MRC5 [2]),Activity (MRC5 [3]),MIC [4],MIC [5],Activity (MRC5 [6]),IC50 (MRC5 [7]),Activity (MRC5 [8])
COc1ccc2cc1-c1cc(ccc1O)C[C@@H]1NCCc3cc4c(cc31)Oc1c(c(OC)cc3c1[C@H](C2)N(C)CC3)O4,3.1 µg/mL,Non-toxic,Non-toxic,3.1 µg/mL,1.5 µg/mL,Non-toxic,3.8 µg/mL,Non-toxic
COc1ccc2cc1-c1cc(cc(Br)c1O)C[C@H]1c3cc4c(cc3CCN1C)Oc1c(OC)cc3c(c1O4)[C@H](C2)N(C)CC3,3.1 µg/mL,Non-toxic,Non-toxic,6.2 µg/mL,1.5 µg/mL,Non-toxic,20 µg/mL,Non-toxic
COc1ccc2cc1-c1cc(ccc1O)C[C@H]1c3cc4c(cc3CCN1C)Oc1c(OC)cc3c(c1O4)[C@@H](C2)N(C)CC3 [TILIACORINE],3.1 µg/mL,Non-toxic,Non-toxic,3.1 µg/mL,3.1 µg/mL,Non-toxic,3.87 µg/mL,Non-toxic
COc1ccc2cc1-c1cc(ccc1O)C[C@H]1c3cc4c(cc3CCN1C)Oc1c(OC)cc3c(c1O4)[C@H](C2)N(C)CC3 [TILIACORININE],6.2 µg/mL,Non-toxic,Non-toxic,3.1 µg/mL,3.1 µg/mL,Non-toxic,3.13 µg/mL,Non-toxic

# Reference: ChEMBL document CHEMBL2016451, “Antimycobacterial activity of bisbenzylisoquinoline alkaloids from Tiliacora triandra against multidrug-resistant isolates of Mycobacterium tuberculosis” (Bioorg Med Chem Lett, 2012)
